Results from patent US20160130234A1, “PHARMACEUTICAL COMPOSITIONS BASED ON PHOTOCHEMICALLY STABLE SILVER COMPLEXES, CHLOREXIDINE AND CATIONIC SURFACTANTS” (PAVIA FARMACEUTICI S.R.L., priority 2013, published 2016).

How the values were obtained:
[1] = test system: Staphylococcus aureus (ATCC-6538) and Pseudomonas aeruginosa (ATCC-15442); assay: quantitative suspension test for bactericidal activity, UNI EN 1272:2009; assay type: cell-based
Method: The bactericidal activity was tested on aqueous solutions of the complex of Example 1, (i.e. where the ligand L coordinated to the silver ion is the 2-Mercapto-5-benzimidazolesulfonic acid sodium salt).
The bactericidal activity tests were carried out according to UNI EN 1272:2009 and UNI EN 13697:2001 standards, which makes reference to chemical disinfectants and antiseptics, by using the following test organism: Staphylococcus aureus (ATCC-6538), as representative of Gram-positive bacteria and Pseudomonas aeruginosa (ATCC-15442), as representative of Gram-negative bacteria.

sepsis = conditions: burns treated with silver nitrate; decreased from 60%; cited from earlier work
[2] = test system: Staphylococcus epidermidis; conditions: cited from earlier work

Compound	antimicrobial activity after exposure to ambient light ([1]; after exposure to ambient light, reduction of Ag^+ to Ag^∘)	reduction of bacterial count compared with the silver complex ([1]; solution of comparable concentration)	number of deaths that were a result of sepsis (sepsis)	development of resistance by Staphylococcus epidermidis [2]
O=[N+]([O-])[O-].[Ag+] [Silver Nitrate]	lose the antimicrobial activity	analogously	28%	
[H]/N=C(\N/C(=N/[H])NCCCCCCNC(=N)NC(=N)Nc1ccc(Cl)cc1)Nc1ccc(Cl)cc1 [chlorhexidine]				no evidence of resistance was observed
polyhexametylene biguanide				no evidence of resistance was observed
